Experimental data: patent US20130236480A1, “TRANSGLUTAMINASE 2 INHIBITORS FOR USE IN THE PREVENTION OR TREATMENT OF RAPIDLY PROGRESSIVE GLOMERULONEPHRITIS” (priority 2010, published 2013)

Tested on: primary culture of mouse podocytes
Assay: Wound assay of podocyte migration
Format: cell-based
Details: 100 μM MDC in DMSO, differentiated podocytes, p<0.05 vs. vehicle alone (n=3)
Method: FIG. 4: Distance of migration of differentiated podocytes within 20 h in the wound assay. A wound assay was used to assess podocyte migration. Differentiated cells were seeded in a 35 mm μ-Dish (Ibidi) forming two confluent monolayers separated by a silicon insert of 500 μm width. After 1 day, the silicon insert was removed and 100 μM of MDC (monodansylcadaverin, Sigma-Aldrich #D4008) diluted in DMSO, a TG2 inhibitor, was added or not. Cells were fixed 20 h later and the distance between the two monolayers was measured. *p<0.05 vs. vehicle alone (n=3 per condition).
In vivo podocytes are terminally differentiated and stationary cells. During crescent formation in anti-GBM GN in mice, however, podocytes assume a migratory phenotype, attach with their apical membrane onto the parietal basement membrane and start to proliferate.

**Q.** Which “Migration of podocytes (distance of migration within 20 h in the wound assay)” value does the source give for CN(C)c1cccc2c(S(=O)(=O)NCCCCCN)cccc12 [monodansylcadaverine] here?
**A.** The value was “significantly blunted”.
